These results are taken from PubChem BioAssay (NCI).

The structures appear in SMILES notation.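 Protocol summary: plate cells (96-well), add compound at 5 concentrations, incubate 48 h, interpolate endpoints linearly. Here, GI50 denotes the concentration required for 50% inhibition of growth. TGI: total growth inhibition.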 Where a SMILES comes first, the peptide text is derived from it. Bridges are numbered along the chain shown (N, C = ends). Roman numbers before positions name the chains, in order. [ ]: non-standard residue; d: D form. The star is where a group is joined. Quinoxaline2carbonyl = O=C(c1cnc2ccccc2n1)*; NMeV = CN[CH](C(=O)O)C(C)C; NMeC = CN[CH](CS)C(=O)O

Some test systems named below: A549 NSCLC; COLO 205 colon; HCC-2998 colon; SN12C renal; SW-620 colon; T-47D breast; HS 578T breast; SF-295 CNS.
Common to all, as to assay: NCI tumour cell line growth inhibition, 48 h

Take `Cc1nc2ccccc2c(/C=C/c2ccc(Br)cc2)c1C(=O)/C=C/c1ccccc1`: the GI50 in the assay on A549 NSCLC is 1.91 µM; in the assay with COLO 205 colon, 1.51 µM; with HCC-2998 colon, 1.8 µM; in the assay on SN12C renal, 1.76 µM; in the assay with SW-620 colon it was 1.54 µM; with T-47D breast, 1.46 µM. Also, the TGI in the assay on A549 NSCLC was 4.57 µM; with COLO 205 colon, 3.47 µM; in the assay on HCC-2998 colon, 3.54 µM; in the assay on SN12C renal, 3.68 µM; with SW-620 colon, 4.45 µM; with T-47D breast it was 3.63 µM.

With `O=[N+]([O-])c1cc(S(=O)(=O)Oc2ccccc2)ccc1Cl`, the GI50 is 3.43 µM in the assay with A549 NSCLC; 3.85 µM with COLO 205 colon; 1.74 µM in the assay on HCC-2998 colon; 2.7 µM in the assay with HS 578T breast; 3.56 µM with SN12C renal; 1.56 µM in the assay with SW-620 colon. For the same compound, the GI50 with T-47D breast is 2.21 µM. The TGI in the assay on A549 NSCLC amounted to 14.5 µM; in the assay on COLO 205 colon it was 14.4 µM; in the assay with HCC-2998 colon, 3.33 µM; in the assay on HS 578T breast, 6.73 µM; in the assay on SN12C renal, 13.6 µM; in the assay with SW-620 colon, 3.59 µM. Further, in the assay on T-47D breast, the TGI was 5.38 µM.

For `CN1CCN(Cc2ccc(NC(=O)c3[nH]ncc3Nc3ncnc4sc5c(c34)CCCC5)cc2)CC1`, the GI50 is 0.535 µM with HCC-2998 colon; 0.151 µM in the assay on HS 578T breast; 0.373 µM in the assay on SF-295 CNS; 0.0425 µM in the assay on SN12C renal; 0.194 µM in the assay with SW-620 colon; 0.457 µM in the assay on T-47D breast. For the same compound, the TGI in the assay with HCC-2998 colon worked out at 2.07 µM; with HS 578T breast, 1.74 µM; in the assay on SF-295 CNS it was 1.78 µM; in the assay on SN12C renal, 1.22 µM; with SW-620 colon, 1.05 µM; in the assay with T-47D breast it was 13.5 µM.

`CC1=CC(=O)C(O)C2(C)C1CC(O)C13COC4(C)C(OC(=O)C41)C(O)C23` (configuration not stated): the GI50 in the assay with A549 NSCLC was 5.49 µM; with COLO 205 colon it was 12.1 µM; in the assay with HS 578T breast, 12.5 µM; with SF-295 CNS, 8.02 µM; with SN12C renal it was 8.32 µM; with SW-620 colon, 5.41 µM. Besides, the GI50 in the assay on T-47D breast was 17.6 µM. The TGI is 34 µM with A549 NSCLC; 77.1 µM with COLO 205 colon; 57.2 µM with HS 578T breast; 39.1 µM in the assay on SF-295 CNS; 32.7 µM in the assay on SN12C renal; 89.9 µM with SW-620 colon. The compound further gave a TGI with T-47D breast of 66.5 µM.

Regarding `CCN(CCO)CC(C)Nc1ccc([N+](=O)[O-])c2sc3ccccc3c(=O)c12` (configuration not stated), the GI50 in the assay with A549 NSCLC was 0.535 µM; in the assay on COLO 205 colon, 1.62 µM; with HS 578T breast it was 1.75 µM; in the assay on SF-295 CNS, 0.488 µM; in the assay on SN12C renal it was 2.15 µM; with SW-620 colon, 1.04 µM. In addition, the GI50 in the assay on T-47D breast is 2.68 µM. In addition, the TGI is 1.97 µM in the assay on A549 NSCLC; 5.96 µM in the assay with COLO 205 colon; 10.5 µM in the assay on HS 578T breast; 2.12 µM in the assay with SF-295 CNS; 18.4 µM with SN12C renal; 3.19 µM in the assay on SW-620 colon. This compound also gave a TGI in the assay with T-47D breast of 26.8 µM.

Consider `N/N=C1\CC(=O)NC(=O)N1`, for which the TGI in the assay on A549 NSCLC, in the assay on COLO 205 colon, in the assay with HS 578T breast, with SF-295 CNS, in the assay with SN12C renal and with SW-620 colon was over 100 µM in each case. The TGI in the assay on T-47D breast is over 100 µM.

For the compound `Cc1ccc(C2=Nc3ccccc3SC(c3cccc([N+](=O)[O-])c3)C2)cc1` (configuration not stated), the TGI with A549 NSCLC is over 100 µM; in the assay with COLO 205 colon it was over 100 µM; in the assay on HS 578T breast, 94.7 µM; in the assay on SF-295 CNS it was over 100 µM; in the assay with SN12C renal it was over 100 µM; in the assay on SW-620 colon it was over 100 µM. The TGI in the assay with T-47D breast was 72.5 µM.

Regarding `CN1CCN(CC(O)COc2c(Br)c(Br)c(Br)c3c2OC(C)(C)C3)CC1` (configuration not stated), the GI50 is 10.6 µM in the assay on A549 NSCLC; 10.4 µM with HS 578T breast; 1.79 µM with SF-295 CNS; 11.8 µM in the assay with SN12C renal; 3.16 µM in the assay on SW-620 colon; 12.6 µM with T-47D breast. Further, the TGI came to 30.4 µM with A549 NSCLC; 42.7 µM in the assay on HS 578T breast; 3.77 µM in the assay on SF-295 CNS; 31.6 µM in the assay with SN12C renal; 8.81 µM with SW-620 colon; 38.5 µM in the assay with T-47D breast.

Take `COc1ccc(C(=O)N2c3ccccc3Sc3ccccc32)c(OC)c1`: the GI50 is 0.785 µM in the assay with A549 NSCLC; 1.49 µM in the assay with HCC-2998 colon; 0.482 µM in the assay with HS 578T breast; 0.484 µM in the assay on SF-295 CNS; 0.586 µM in the assay on SN12C renal; 0.412 µM in the assay with SW-620 colon. The TGI is over 100 µM in the assay with A549 NSCLC; 8.09 µM in the assay on HCC-2998 colon; over 100 µM with HS 578T breast; over 100 µM in the assay with SF-295 CNS; over 100 µM in the assay on SN12C renal; over 100 µM in the assay on SW-620 colon.

Take `COc1ccc(C2[C@@H](Cl)C(=O)N2c2cc(OC)c(OC)c(OC)c2)cc1Cl` (some centres not stated): the GI50 in the assay with A549 NSCLC was 0.364 µM; in the assay with COLO 205 colon, 0.203 µM; in the assay on HCC-2998 colon it was 0.41 µM; in the assay with HS 578T breast, 0.0705 µM; in the assay on SF-295 CNS, 0.0411 µM; with SN12C renal, 0.414 µM. Also, the GI50 in the assay with SW-620 colon is 0.132 µM. The TGI in the assay on A549 NSCLC was over 100 µM; with COLO 205 colon, 0.512 µM; in the assay on HCC-2998 colon it was 17.6 µM; with HS 578T breast, 70.3 µM; with SF-295 CNS, 0.648 µM; in the assay with SN12C renal it was over 100 µM. The compound also came in with a TGI in the assay on SW-620 colon of 65 µM.

With `CC1NC(=O)C(NC(=O)c2cnc3ccccc3n2)COC(=O)C(C(C)C)N(C)C(=O)C2CSSCC(C(=O)N(C)C(C(C)C)C(=O)OCC(NC(=O)c3cnc4ccccc4n3)C(=O)NC(C)C(=O)N2C)N(C)C1=O` (configuration not stated) (I: Quinoxaline2carbonyl-SA[NMeC][NMeV] / II: Quinoxaline2carbonyl-SA[NMeC][NMeV]; ester I:1-II:C, I:C-II:1; disulfide I:3-II:3; configuration not given here), the TGI is 2.78 µM in the assay with A549 NSCLC; under 0.01 µM in the assay on HCC-2998 colon; under 0.01 µM in the assay with HS 578T breast; 16.9 µM with SF-295 CNS; 2.98 µM with SW-620 colon.

As for `COc1ccc2c(c1)OC1=C(C(=O)OC1)C2c1cc(OC)c2c(c1)OCO2` (configuration not stated), the GI50 in the assay on A549 NSCLC is 0.0459 µM; with COLO 205 colon, 0.031 µM; in the assay with HCC-2998 colon it was 0.0424 µM; in the assay on HS 578T breast, 0.0348 µM; in the assay on SF-295 CNS, 0.0283 µM; in the assay with SN12C renal, 0.102 µM. Further, the GI50 in the assay on SW-620 colon was 0.0407 µM. Also, the TGI in the assay on A549 NSCLC was over 100 µM; with COLO 205 colon, 0.0908 µM; in the assay with HCC-2998 colon, over 35.1 µM; in the assay with HS 578T breast, over 100 µM; with SF-295 CNS, over 100 µM; in the assay on SN12C renal it was over 100 µM. The compound further showed a TGI in the assay on SW-620 colon of over 100 µM.
